Reference: a melting point compilation (Tetko et al.; mined from patent text by program, amines drawn as free bases though some values may be those of a salt)

Row | Compound | melting point [°C]
1 | CSc1ccc(NC(=O)N(O)C2CCCCC2)cc1 | 151 to 153
2 | CCCCCCCCCCOc1cc(OCCCCCCCCCC)cc(C(=O)OC)c1 | 52 to 53
3 | COP(=O)(Nc1ccc(N)cc1)OC | 125
4 | CCCCCCCCOC(=O)c1cc(C(C)(C)C)c(OC(=O)c2cc(C(C)(C)C)c(O)c(C(C)(C)C)c2)c(C(C)(C)C)c1 | 94 to 97
5 | CCCCCCCCCCCCCCCCCCSSSSCCCCCCCCCCCCCCCCCC | 44 to 45
6 | CCCNC(=O)C(C)(C)N=NC(C)(C)C(=O)NCCC | 65
7 | CS(=O)(=O)OCCN(CCOS(C)(=O)=O)c1ccc([N+](=O)[O-])c(C(=O)O)c1[N+](=O)[O-] | 200 to 210
8 | O=[N+]([O-])C=C(NCCSCc1ncccc1Br)NCCSCc1ncccc1Br | 122 to 123
9 | CNc1nc(C)c(-c2ccc(Cl)c([N+](=O)[O-])c2)s1 | 220 to 232
10 | NS(=O)(=O)CCCSc1ccc2ncnn2n1 | 130 to 131
11 | COc1cc(N)c(Cl)cc1C(=O)NCC1CN(CC2CCN(C(=O)N(C)C)CC2)CCO1 (stereo not given) | 179 to 180
12 | CN(C(=O)C(F)(F)F)C1(C)CN(c2c(F)cc3c(=O)c(C(=O)O)cn(C4CC4)c3c2F)C1 | 291 to 294
13 | CC(C)(C)c1ccccc1N1CCN(C(=O)CCC(=O)O)CC1 | 175 to 176
14 | COc1c(N2CCC(N)C2)c(F)c(N)c2c(=O)c(C(=O)O)cn(C3CC3)c12 (stereo not given) | 254 to 257
15 | O=C(Cc1cccc2ccccc12)N(O)[C@H](CN1CCCC1)c1ccccc1 | 81 to 83.5
16 | Cc1cc(O)c(N)c([N+](=O)[O-])c1C | 176 to 178
17 | CC1(COC2CC3C4CCC5=CC(=O)CCC5(C)C4(F)C(O)CC3(C)C2(O)C(=O)CO)CO1 (stereo not given) | 223 to 227
18 | CC1(C)Cc2sc(C(=O)O)cc2C1=O | 124 to 125
19 | CC(C)(C)c1onc(NS(=O)(=O)c2ccccc2)c1Br | 139 to 141
20 | CSc1nc2cc(C)nn2c2ncccc12 | 190

Row | Compound | melting point [°C]
21 | CCOP(=O)(OCC)SCc1ccc(-c2nc(S)c3cc(Br)ccc3n2)cc1 | 196 to 199
22 | CCOC(=O)c1nc2cc(C)sc2nc1N | 121 to 123
23 | Cn1cc2snnc2n1 | 125 to 127
24 | N#CCCN1CCC(C2(c3ccc(F)cc3)OCCO2)CC1 | 107 to 109
25 | O=C(Nc1cccc(Cl)c1)ONC1=Nc2ccc([N+](=O)[O-])cc2C(c2ccccc2)=NC1 | 123 to 125
26 | COc1cc2c(cc1OC)CC(NCC(=O)O)C2 | 250
27 | CC(C)c1[nH]c(=O)[nH]c1-c1cc(C(C)(C)C)c(O)c(C(C)(C)C)c1 | > 290
28 | CC(C)(O)Cn1c(CO)nc2c(N)nc3cc(CCCNS(C)(=O)=O)ccc3c21 | 202 to 205
29 | CN1Cc2c(C#N)ncn2-c2ccc(F)c(Cl)c2C1=O | 221 to 223
30 | CC(=O)OC1CCC2(C)C(=CCC3C2CCC2(C)C(C(C)CCCC(C)(C)C)CCC32)C1 (stereo not given) | 152 to 153
31 | COc1cc(CO)c(-c2cc3c(cc2CO)OCO3)c(OC)c1OC | 123 to 124
32 | O=C1CC2(CCCC2)CC(=O)N1c1ccncc1 | 208 to 211
33 | Cc1noc2ncnc(NCCC(C)C)c12 | 133
34 | N=C(N)Nc1nc2ccc([N+](=O)[O-])cc2[nH]1 | 305 to 307
35 | Cc1c(C#N)c2c(c(C)c1NC(=O)CC(C)(C)C)C(c1ccc(C(C)C)cc1)CO2 (stereo not given) | 135 to 136
36 | COC(=O)C1CC(O)CN1C(=O)c1cc2c(cc1[N+](=O)[O-])OCO2 (stereo not given) | 166
37 | C=CCONC(=O)c1nc(Cl)cc(N)c1Cl | 161 to 163
38 | CCS(=O)(=O)Nn1c(=O)[nH]c2cc(C(F)(F)F)c(-n3cnnc3)cc2c1=O | 185 to 195
39 | CCCCCCCSC[C@H](N[C@@H](C)C(=O)O)C(=O)OCC | 124 to 126
40 | Cc1nc(N2CCN(CCC3CC3)C2=O)sc1-c1cc[nH]n1 | 147 to 149

The remaining lines, values ahead:

Row | melting point [°C] | Compound
41 | > 210 | CCCCCCCCCCOc1ccc2c(=O)c3cc(C(=O)O)ccc3oc2c1CCC(=O)O
42 | 99 to 101 | COc1cccc(-c2nn(C)c3ccsc23)c1
43 | 69.4 | O=C1N(c2cc(Cl)cc(Cl)c2)C(=O)C2(Cc3ccc(Br)cc3)CCCN12 (stereo not given)
44 | 168 to 170 | CCOC(=O)c1cn(-c2ccccc2)c2occc2c1=O
45 | 182 to 185 | CCOCc1nc2c(N)nc3ccc(OCc4ccccc4)cc3c2n1CCCCNS(C)(=O)=O
46 | 168 to 170 | CC1CN(Cc2ccccc2)C(=O)C(=C2SC=CS2)C1=O (stereo not given)
47 | 81 to 82 | CC(C)c1nn(-c2ccc(C(F)(F)F)cn2)cc1CCCCOc1cccc(OC(C)(C)C(=O)O)c1
48 | > 310 | O=C1NC(=O)c2c1cc1ccc3c(c1c2-c1ccc(F)cc1)OCC3
49 | 206 to 209 | Cn1cc(S(C)=O)c(=O)c2scc(-c3ccccc3)c21 (stereo not given)
50 | 107 to 110 | CCOC(=O)C(C)(C)c1ccc2c(c1)N(CC(C)N(C)C)c1ccccc1S2 (stereo not given)
51 | 106 to 108 | CCOC(=O)Cc1c(C)nc(-c2ccccc2)nc1-c1cccc([N+](=O)[O-])c1
52 | 115 to 119 | NC(Cc1ccccc1)C(O)C(O)C(N)Cc1ccccc1 (stereo not given)
53 | 182 to 184 | CN1C(=O)CC[C@]2(C)c3ccc(-c4cccc5cnccc45)cc3CC[C@@H]12
54 | 68 to 70 | CCc1ccc2c(c1)C(Cl)Cc1ccc(F)cc1S2 (stereo not given)
55 | 214 to 218 | O=C1c2ccccc2C(=O)N1C[C@@H](O)COc1ccc(Cl)cc1O
56 | 167 to 169 | COC(=O)c1ccc2c(c1)NC(=O)C(CCO)O2 (stereo not given)
57 | 90 to 91 | COc1ccc(CS[C@@H]2C[C@@H](C(=O)OCc3ccccc3)N(S(=O)(=O)c3ccc4ccccc4c3)C2)cc1
58 | 72.7 | O=S(=O)(OCC(F)(F)F)c1ccc2ccccc2c1
59 | 126 | Cc1cnc2c([N+](=O)[O-])cccc2c1Cl
60 | 90 | Cc1cc(Cl)ccc1-c1cc(F)cc2c1NC(CN)CO2 (stereo not given)

Row | melting point [°C] | Compound
61 | 115 to 117 | CN1CCN(Cc2ccc3c(c2)Cc2c(-c4ccsc4)n[nH]c2-3)CC1
62 | 100 to 102 | CCCc1c(OCCCCCOc2ccc3cc(OCC(=O)OCC)ccc3c2CCC(=O)OCC)ccc2c1OCCC2=O
63 | 265 to 270 | CCOC(=O)c1[nH]c2cc(F)ccc2c1NCCC(=O)c1ccccc1
64 | 232 to 234 | Cc1c(-c2ccncc2)[nH]c(-c2ccncc2)c1S(C)(=O)=O
65 | 128 to 129 | COc1cc(COc2nn(-c3ccccc3)cc2C=O)ccc1OCc1csc(N2CCOCC2)n1
66 | 112 to 113 | Cc1cccc(COc2cccc(O)c2)c1C(=O)O
67 | 216 to 219 | CCCc1ccnc2c(=O)[nH]c(-c3cc(S(=O)(=O)NC)ccc3OCC)nc12
68 | 74 to 76 | CN1Cn2cc(CO)cc2-c2ccccc21
69 | 225 to 233 | O=C(Nc1ccccc1)NC(Cc1ccccc1)C(=O)Nc1c(F)cc(F)cc1F (stereo not given)
70 | 195 to 198 | Cn1nc(C(=O)O)c(=O)n(-c2ccccc2)c1=O
71 | 182 to 185 | CC1NC(=O)NN=C1c1ccc(NCCO)cc1 (stereo not given)
72 | 131 to 140 | O=C(O)Cc1ccc(NC(=O)C(Cn2ccnc2)NS(=O)(=O)c2ccc(Br)cc2)cc1 (racemic)
73 | 99 to 101 | O=C1CCc2ccc(OCc3ccccc3)cc21
74 | 79 | CCCCCCCNC(=O)N(CCC)c1cccc(-c2ccc(CCC(=O)O)cc2)c1
75 | 196 | C#CCOc1cc(OCC#C)c2c(=O)cc(-c3ccc(OC)c(OCC#C)c3)oc2c1
76 | 135 to 140 | Cc1ccc(-c2ccc(=S)[nH]n2)c(OCC(O)CNC(C)(C)C)c1 (stereo not given)
77 | 69 to 71 | COc1ccccc1N1CCN(CCNC(=O)CCN2CCC(c3c[nH]c4cc(Cl)ccc34)CC2)CC1
78 | 122 to 124 | CC(=O)c1cccc(SCCCc2cn(S(=O)(=O)N(C)C)cn2)c1
79 | 140 | COc1c(C2CCN(CCCCNC(=O)c3ccc(-c4ccc(C#N)cc4)cn3)CC2)ccc2c1CCCC2
80 | 201 to 204 | CCN(CC)c1nc(N)nc(-c2ccc(Cl)c(Cl)c2)n1

Row | melting point [°C] | Compound
81 | 108 to 111 | COc1ccc(N2C=CN(CCC(C)(C)NCC(O)c3ccc(OCc4ccccc4)c(CO)c3)C2)cc1 (stereo not given)
82 | 125 to 126 | [N-]=[N+]=NCC(=O)Nc1ccc(S(=O)(=O)c2cccc(Cl)c2)cc1
83 | 151 to 155 | Nc1ccc(Sc2cc(F)ccc2CC(=O)O)cc1
84 | 143 to 145 | CC(c1ccc2c(c1)N(Cc1ccc(S(C)(=O)=O)cc1)c1ccccc1S2)N(O)C(N)=O (stereo not given)
85 | 165 to 167 | COCCNC(=O)c1cc(C(=O)OC)c2cc(Cc3ccc(F)cc3)cnc2c1O
86 | 97 | CC(=O)N1CCC(c2ccccc2)c2cccc(CCN3CCN(c4nsc5ccccc45)CC3)c21 (stereo not given)
87 | 173 to 174 | CSC1=C([N+](=O)[O-])CN(Cc2ccccc2)CN1
88 | 158 to 161 | O=C(CCCl)N1Cc2cccc3[nH]cc(c23)C1
89 | 98 to 106 | CC=CCn1c(C)c(C)c2cnnc(CCc3ccccc3)c21
90 | 87 to 88 | CC(C)Cn1c(CO)c(-c2ccc(Cl)cc2)c2cc(OCc3ccccc3)ccc2c1=O
91 | 88 | COc1ccc2c(C(=O)CC(C)=O)c(OC)ccc2c1
92 | 207 to 210 | COC(=O)c1cc(C(=O)NNC(=O)c2ccco2)c2cc(Cc3ccc(F)cc3)cnc2c1O
93 | 48 to 49 | CCOC(=O)Cn1cccc(NS(=O)(=O)Cc2ccccc2)c1=O
94 | 72 to 74 | CCc1oc2ccccc2c1C(=O)c1ccc(OCC(=O)OC)cc1
95 | 156 to 158 | C=CCOC(=O)c1ccc(NC(C)=O)cc1O
96 | 237 to 239 | Nc1ccncc1-c1n[nH]c2ccccc12
97 | 108 to 114 | CCc1nc2cc(N(C)C)c(Cl)cc2n1-c1ccc(CCNC(=O)NS(=O)(=O)c2ccc(C)cc2)cc1
98 | 88 to 90 | CC(C)(C)OC(=O)N1[C@@H](Cc2cccc([Si](C)(C)C)c2)C(=O)O[C@H](c2ccccc2)[C@@H]1c1ccccc1
99 | 237 to 238 | CCOC(=O)C(=O)CC(=O)c1cn(Cc2ccc3ccccc3n2)c2ccccc2c1=O
100 | 188 | COc1ccc2ccccc2c1C(Nc1ccccc1C)C(=O)O (stereo not given)
